# From PubChem BioAssay (NCI)
#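 96-well plates; 48 h exposure; 5 concentrations. Endpoints by linear interpolation between flanking doses. Not reached: highest tested concentration assigned. GI50 = concentration required for 50% inhibition of growth. TGI denotes the concentration required for complete inhibition of growth.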
# Legend:
# Assay in all cases: NCI-60 cell line screen, 48 h
# 786-0 renal = system: 786-0 renal
# A498 renal = system: A498 renal
# A549 NSCLC = system: A549 NSCLC
# ACHN renal = system: ACHN renal
# BT-549 breast = system: BT-549 breast
# CAKI-1 renal = system: CAKI-1 renal
# COLO 205 colon = system: COLO 205 colon
# DU-145 prostate = system: DU-145 prostate
# EKVX NSCLC = system: EKVX NSCLC
# HCC-2998 colon = system: HCC-2998 colon
# HCT-116 colon = system: HCT-116 colon
# HCT-15 colon = system: HCT-15 colon
# HL-60(TB) leukemia = system: HL-60(TB) leukemia
# HOP-62 NSCLC = system: HOP-62 NSCLC
# HOP-92 NSCLC = system: HOP-92 NSCLC
# HS 578T breast = system: HS 578T breast
# HT29 colon = system: HT29 colon
# IGROV1 ovarian = system: IGROV1 ovarian
# K-562 leukemia = system: K-562 leukemia
# KM12 colon = system: KM12 colon
# LOX IMVI melanoma = system: LOX IMVI melanoma
# M14 melanoma = system: M14 melanoma
# MALME-3M melanoma = system: MALME-3M melanoma
# MCF7 breast = system: MCF7 breast
# MDA-MB-231 breast = system: MDA-MB-231 breast
# MDA-MB-435 = system: MDA-MB-435
# MOLT-4 leukemia = system: MOLT-4 leukemia
# NCI-H226 lung = system: NCI-H226 lung
# NCI-H23 lung = system: NCI-H23 lung
# NCI-H460 lung = system: NCI-H460 lung
# NCI-H522 lung = system: NCI-H522 lung
# NCI/ADR-RES ovarian = system: NCI/ADR-RES ovarian
# OVCAR-3 ovarian = system: OVCAR-3 ovarian
# OVCAR-4 ovarian = system: OVCAR-4 ovarian
# OVCAR-5 ovarian = system: OVCAR-5 ovarian
# OVCAR-8 ovarian = system: OVCAR-8 ovarian
# PC-3 prostate = system: PC-3 prostate
# RPMI-8226 leukemia = system: RPMI-8226 leukemia
# RXF 393 renal = system: RXF 393 renal
# SF-268 CNS = system: SF-268 CNS
# SF-295 CNS = system: SF-295 CNS
# SF-539 CNS = system: SF-539 CNS
# SK-MEL-2 melanoma = system: SK-MEL-2 melanoma
# SK-MEL-28 melanoma = system: SK-MEL-28 melanoma
# SK-MEL-5 melanoma = system: SK-MEL-5 melanoma
# SN12C renal = system: SN12C renal
# SNB-19 CNS = system: SNB-19 CNS
# SNB-75 CNS = system: SNB-75 CNS
# SR leukemia = system: SR leukemia
# SW-620 colon = system: SW-620 colon
# T-47D breast = system: T-47D breast
# TK-10 renal = system: TK-10 renal
# U251 CNS = system: U251 CNS
# UACC-257 melanoma = system: UACC-257 melanoma
# UACC-62 melanoma = system: UACC-62 melanoma
# UO-31 renal = system: UO-31 renal
smiles,measurement,setting,value
CN1CCN(c2ccc(NC3=C(Cl)C(=O)c4ncccc4C3=O)cc2C(F)(F)F)CC1,GI50,786-0 renal,1.84 µM
same,TGI,786-0 renal,3.32 µM
same,GI50,A498 renal,11.3 µM
same,TGI,A498 renal,24.2 µM
same,GI50,A549 NSCLC,18.8 µM
same,TGI,A549 NSCLC,38 µM
same,GI50,ACHN renal,1.48 µM
same,TGI,ACHN renal,2.8 µM
same,GI50,BT-549 breast,13 µM
same,TGI,BT-549 breast,26.3 µM
same,GI50,CAKI-1 renal,1.72 µM
same,TGI,CAKI-1 renal,3.13 µM
same,GI50,COLO 205 colon,1.89 µM
same,TGI,COLO 205 colon,4.63 µM
same,GI50,DU-145 prostate,1.91 µM
same,TGI,DU-145 prostate,3.71 µM
same,GI50,EKVX NSCLC,2.66 µM
same,TGI,EKVX NSCLC,8.44 µM
same,GI50,HCC-2998 colon,7.51 µM
same,TGI,HCC-2998 colon,20.8 µM
same,GI50,HCT-116 colon,1.69 µM
same,TGI,HCT-116 colon,3.27 µM
same,GI50,HCT-15 colon,1.39 µM
same,TGI,HCT-15 colon,3 µM
same,GI50,HL-60(TB) leukemia,1.79 µM
same,TGI,HL-60(TB) leukemia,4.73 µM
same,GI50,HOP-62 NSCLC,17.4 µM
same,TGI,HOP-62 NSCLC,37.1 µM
same,GI50,HOP-92 NSCLC,1.58 µM
same,TGI,HOP-92 NSCLC,3.03 µM
same,GI50,HS 578T breast,3.31 µM
same,TGI,HS 578T breast,42.3 µM
same,GI50,HT29 colon,2.34 µM
same,TGI,HT29 colon,5.56 µM
same,GI50,IGROV1 ovarian,1.56 µM
same,TGI,IGROV1 ovarian,3.18 µM
same,GI50,K-562 leukemia,0.435 µM
same,TGI,K-562 leukemia,> 100 µM
same,GI50,KM12 colon,14.4 µM
same,TGI,KM12 colon,30.1 µM
same,GI50,LOX IMVI melanoma,1.53 µM
same,TGI,LOX IMVI melanoma,2.94 µM
same,GI50,M14 melanoma,1.78 µM
same,TGI,M14 melanoma,3.67 µM
same,GI50,MALME-3M melanoma,1.46 µM
same,TGI,MALME-3M melanoma,2.83 µM
same,GI50,MCF7 breast,1.7 µM
same,TGI,MCF7 breast,4.23 µM
same,GI50,MDA-MB-231 breast,1.69 µM
same,TGI,MDA-MB-231 breast,5.02 µM
same,GI50,MDA-MB-435,1.79 µM
same,TGI,MDA-MB-435,3.3 µM
same,GI50,MOLT-4 leukemia,0.304 µM
same,TGI,MOLT-4 leukemia,2.67 µM
same,GI50,NCI-H226 lung,13 µM
same,TGI,NCI-H226 lung,29.9 µM
same,GI50,NCI-H23 lung,1.87 µM
same,TGI,NCI-H23 lung,3.87 µM
same,GI50,NCI-H460 lung,17.4 µM
same,TGI,NCI-H460 lung,34.8 µM
same,GI50,NCI-H522 lung,1.63 µM
same,TGI,NCI-H522 lung,3.39 µM
same,GI50,NCI/ADR-RES ovarian,2.46 µM
same,TGI,NCI/ADR-RES ovarian,7.47 µM
same,GI50,OVCAR-3 ovarian,0.297 µM
same,TGI,OVCAR-3 ovarian,1.11 µM
same,GI50,OVCAR-4 ovarian,1.09 µM
same,TGI,OVCAR-4 ovarian,2.31 µM
same,GI50,OVCAR-5 ovarian,2.2 µM
same,TGI,OVCAR-5 ovarian,5.14 µM
same,GI50,OVCAR-8 ovarian,3.14 µM
same,TGI,OVCAR-8 ovarian,12.4 µM
same,GI50,PC-3 prostate,2.23 µM
same,TGI,PC-3 prostate,6.85 µM
same,GI50,RPMI-8226 leukemia,0.874 µM
same,TGI,RPMI-8226 leukemia,6.66 µM
same,GI50,RXF 393 renal,1.52 µM
same,TGI,RXF 393 renal,2.91 µM
same,GI50,SF-268 CNS,3.3 µM
same,TGI,SF-268 CNS,14 µM
same,GI50,SF-295 CNS,16.6 µM
same,TGI,SF-295 CNS,30.4 µM
same,GI50,SF-539 CNS,1.74 µM
same,TGI,SF-539 CNS,3.53 µM
same,GI50,SK-MEL-2 melanoma,3.32 µM
same,TGI,SK-MEL-2 melanoma,8.79 µM
same,GI50,SK-MEL-28 melanoma,1.99 µM
same,TGI,SK-MEL-28 melanoma,3.45 µM
same,GI50,SK-MEL-5 melanoma,3.52 µM
same,TGI,SK-MEL-5 melanoma,13.3 µM
same,GI50,SN12C renal,1.79 µM
same,TGI,SN12C renal,3.31 µM
same,GI50,SNB-19 CNS,13.6 µM
same,TGI,SNB-19 CNS,26.8 µM
same,GI50,SNB-75 CNS,5.44 µM
same,TGI,SNB-75 CNS,19.8 µM
same,GI50,SR leukemia,0.355 µM
same,TGI,SR leukemia,3.66 µM
same,GI50,SW-620 colon,1.35 µM
same,TGI,SW-620 colon,3.37 µM
same,GI50,T-47D breast,1.33 µM
same,TGI,T-47D breast,5.31 µM
same,GI50,TK-10 renal,1.92 µM
same,TGI,TK-10 renal,3.45 µM
same,GI50,U251 CNS,4.45 µM
same,TGI,U251 CNS,17 µM
same,GI50,UACC-257 melanoma,1.62 µM
same,TGI,UACC-257 melanoma,3.09 µM
same,GI50,UACC-62 melanoma,1.88 µM
same,TGI,UACC-62 melanoma,3.81 µM
same,GI50,UO-31 renal,1.5 µM
same,TGI,UO-31 renal,2.82 µM
